# “And” between values parts separate entries of the source, which are not always exact repeats. Equal values may be shown once.
# Assays:
# [1] = system: BACE-1 protein expression; assay: BACE-1 protein expression in SHSY cells (Western blot); format: cell-based, human; settings: 24 hours, corrected for actin
# [2] = Clinical chemistry, day 15; format: in vivo, Sprague-Dawley rats
# From the text: On day 15, urine was collected on all surviving animals for urinalysis. The animals were euthanized and bled via cardiac puncture. Blood was collected for hematology, clinical chemistry, and coagulation analysis. Tissues were collected, weighed, and stored in 10% neutral-buffered formalin for possible future analysis.
# [3] = anatabine 0.1 mg/kg, female rats, individual animals
# [4] = anatabine 0.1 mg/kg, male rats, individual animals
# [5] = anatabine 0.75 mg/kg, female rats, individual animals
# [6] = anatabine 0.75 mg/kg, male rats, individual animals
smiles,measurement,setting,value
"C1=CCC(c2cccnc2)NC1 (racemic) [Anatabine, 1,2,3,6-tetrahydro-[2,3′]bipyridinyl]",BACE-1 protein expression,[1],reduced BACE expression
same,CHLORIDE,"[2]; Mean, F, 0.1 mg/kg",100.20 mEq/L
same,CHOLESTEROL,"[2]; Mean, F, 0.1 mg/kg",76.40 mg/dL
same,CREATININE,"[2]; Mean, F, 0.1 mg/kg",0.44 mg/dL
same,GLUCOSE,"[2]; Mean, F, 0.1 mg/kg",207.60 mg/dL
same,PHOSPHORUS,"[2]; Mean, F, 0.1 mg/kg",8.08 mg/dL
same,POTASSIUM,"[2]; Mean, F, 0.1 mg/kg",5.82 mEq/L
same,SODIUM,"[2]; Mean, F, 0.1 mg/kg",146.80 mEq/L
same,CHLORIDE,"[2]; Mean, F, 0.75 mg/kg",98.00 mEq/L
same,CHOLESTEROL,"[2]; Mean, F, 0.75 mg/kg",69.80 mg/dL
same,CREATININE,"[2]; Mean, F, 0.75 mg/kg",0.44 mg/dL
same,GLUCOSE,"[2]; Mean, F, 0.75 mg/kg",220.80 mg/dL
same,PHOSPHORUS,"[2]; Mean, F, 0.75 mg/kg",8.64 mg/dL
same,POTASSIUM,"[2]; Mean, F, 0.75 mg/kg",5.88 mEq/L
same,SODIUM,"[2]; Mean, F, 0.75 mg/kg",145.00 mEq/L
same,CHLORIDE,"[2]; Mean, M, 0.1 mg/kg",98.00 mEq/L
same,CHOLESTEROL,"[2]; Mean, M, 0.1 mg/kg",67.20 mg/dL
same,CREATININE,"[2]; Mean, M, 0.1 mg/kg",0.36 mg/dL
same,PHOSPHORUS,"[2]; Mean, M, 0.1 mg/kg",10.82 mg/dL
same,POTASSIUM,"[2]; Mean, M, 0.1 mg/kg",6.40 mEq/L
same,SODIUM,"[2]; Mean, M, 0.1 mg/kg",146.20 mEq/L
same,CHLORIDE,"[2]; Mean, M, 0.75 mg/kg",98.60 mEq/L
same,CHOLESTEROL,"[2]; Mean, M, 0.75 mg/kg",62.80 mg/dL
same,CREATININE,"[2]; Mean, M, 0.75 mg/kg",0.36 mg/dL
same,GLUCOSE,"[2]; Mean, M, 0.75 mg/kg",202.00 mg/dL
same,PHOSPHORUS,"[2]; Mean, M, 0.75 mg/kg",10.92 mg/dL
same,POTASSIUM,"[2]; Mean, M, 0.75 mg/kg",6.12 mEq/L
same,SODIUM,"[2]; Mean, M, 0.75 mg/kg",147.80 mEq/L
same,ALBUMIN,[2]; [3],3.6 g/dL (3×) and 3.5 g/dL and 3.8 g/dL
same,ALK PHOSPHATASE,[2]; [3],261 IU/L and 140 IU/L and 209 IU/L and 412 IU/L and 220 IU/L
same,ALT,[2]; [3],57 IU/L and 43 IU/L and 47 IU/L and 62 IU/L and 39 IU/L
same,AST,[2]; [3],78 IU/L and 69 IU/L and 70 IU/L and 86 IU/L and 82 IU/L
same,BUN,[2]; [3],21 mg/dL (2×) and 19 mg/dL (3×)
same,CHLORIDE,[2]; [3],99 mEq/L and 102 mEq/L (2×) and 97 mEq/L and 101 mEq/L
same,CHOLESTEROL,[2]; [3],90 mg/dL and 74 mg/dL and 65 mg/dL and 66 mg/dL and 87 mg/dL
same,CREATININE,[2]; [3],0.4 mg/dL (3×) and 0.5 mg/dL (2×)
same,DIR BILIRUBIN,[2]; [3],0 mg/dL
same,GLOBULIN,[2]; [3],3.1 g/dL (3×) and 3 g/dL
same,GLUCOSE,[2]; [3],224 mg/dL and 170 mg/dL and 227 mg/dL and 220 mg/dL and 197 mg/dL
same,PHOSPHORUS,[2]; [3],8.5 mg/dL (2×) and 8.2 mg/dL and 7.4 mg/dL and 7.8 mg/dL
same,POTASSIUM,[2]; [3],5.4 mEq/L and 6.3 mEq/L and 5.2 mEq/L and 5.5 mEq/L and 6.7 mEq/L
same,SODIUM,[2]; [3],147 mEq/L and 145 mEq/L
same,TOT BILIRUBIN,[2]; [3],0 mg/dL
same,TOT PROTEIN,[2]; [3],6.7 g/dL (2×) and 6.3 g/dL and 6.9 g/dL and 6.6 g/dL
same,ALBUMIN,[2]; [4],3.4 g/dL (2×) and 3.2 g/dL and 3.1 g/dL (2×)
same,ALK PHOSPHATASE,[2]; [4],470 IU/L and 227 IU/L and 364 IU/L and 358 IU/L and 618 IU/L
same,ALT,[2]; [4],92 IU/L and 65 IU/L and 74 IU/L and 44 IU/L and 78 IU/L
same,AST,[2]; [4],97 IU/L and 99 IU/L and 93 IU/L and 85 IU/L and 106 IU/L
same,BUN,[2]; [4],18 mg/dL (2×) and 21 mg/dL and 14 mg/dL and 19 mg/dL
same,CHLORIDE,[2]; [4],98 mEq/L and 97 mEq/L (2×) and 99 mEq/L (2×)
same,CHOLESTEROL,[2]; [4],65 mg/dL and 64 mg/dL and 75 mg/dL and 56 mg/dL and 76 mg/dL
same,CREATININE,[2]; [4],0.4 mg/dL (3×) and 0.3 mg/dL (2×)
same,DIR BILIRUBIN,[2]; [4],0 mg/dL
same,GLOBULIN,[2]; [4],2.9 g/dL (2×) and 2.6 g/dL and 3.1 g/dL
same,GLUCOSE,[2]; [4],258 mg/dL and 214 mg/dL and 194 mg/dL and 210 mg/dL
same,PHOSPHORUS,[2]; [4],10.3 mg/dL (2×) and 10.8 mg/dL
same,POTASSIUM,[2]; [4],5.9 mEq/L and 6.5 mEq/L and 6.6 mEq/L and 6.9 mEq/L and 6.1 mEq/L
same,SODIUM,[2]; [4],144 mEq/L and 147 mEq/L
same,TOT BILIRUBIN,[2]; [4],0 mg/dL
same,TOT PROTEIN,[2]; [4],6.3 g/dL (2×) and 5.8 g/dL and 5.9 g/dL and 6.2 g/dL
same,ALBUMIN,[2]; [5],3.5 g/dL (2×) and 3.6 g/dL (2×) and 3.4 g/dL
same,ALK PHOSPHATASE,[2]; [5],123 IU/L and 142 IU/L and 235 IU/L and 130 IU/L and 160 IU/L
same,ALT,[2]; [5],63 IU/L and 49 IU/L (2×) and 55 IU/L and 57 IU/L
same,AST,[2]; [5],95 IU/L and 69 IU/L and 76 IU/L and 54 IU/L and 72 IU/L
same,BUN,[2]; [5],15 mg/dL (3×) and 16 mg/dL (2×)
same,CHLORIDE,[2]; [5],97 mEq/L (2×) and 96 mEq/L and 99 mEq/L and 101 mEq/L
same,CHOLESTEROL,[2]; [5],66 mg/dL and 64 mg/dL and 63 mg/dL and 69 mg/dL and 87 mg/dL
same,CREATININE,[2]; [5],0.5 mg/dL (2×) and 0.4 mg/dL (3×)
same,DIR BILIRUBIN,[2]; [5],0 mg/dL
same,GLOBULIN,[2]; [5],2.7 g/dL and 3 g/dL (2×)
same,GLUCOSE,[2]; [5],237 mg/dL and 247 mg/dL and 217 mg/dL
same,PHOSPHORUS,[2]; [5],9.7 mg/dL and 7.7 mg/dL and 9.6 mg/dL and 9.2 mg/dL and 7 mg/dL
same,POTASSIUM,[2]; [5],5.5 mEq/L and 5.9 mEq/L and 6 mEq/L and 5.7 mEq/L and 6.3 mEq/L
same,SODIUM,[2]; [5],145 mEq/L (2×) and 144 mEq/L (2×) and 147 mEq/L
same,TOT BILIRUBIN,[2]; [5],0 mg/dL
same,TOT PROTEIN,[2]; [5],6.3 g/dL (2×) and 6.2 g/dL and 6.6 g/dL and 6.5 g/dL
same,ALBUMIN,[2]; [6],3.4 g/dL (2×) and 3.1 g/dL and 3.2 g/dL and 3.3 g/dL
same,ALK PHOSPHATASE,[2]; [6],479 IU/L and 297 IU/L and 325 IU/L and 337 IU/L and 416 IU/L
same,ALT,[2]; [6],75 IU/L and 57 IU/L and 65 IU/L and 50 IU/L and 87 IU/L
same,AST,[2]; [6],103 IU/L and 66 IU/L and 97 IU/L and 90 IU/L and 92 IU/L
same,BUN,[2]; [6],15 mg/dL and 18 mg/dL and 12 mg/dL and 17 mg/dL and 21 mg/dL
same,CHLORIDE,[2]; [6],98 mEq/L and 99 mEq/L (2×) and 100 mEq/L and 97 mEq/L
same,CHOLESTEROL,[2]; [6],69 mg/dL (2×) and 60 mg/dL and 54 mg/dL and 62 mg/dL
same,CREATININE,[2]; [6],0.4 mg/dL (3×) and 0.3 mg/dL (2×)
same,DIR BILIRUBIN,[2]; [6],0 mg/dL (4×) and 0.1 mg/dL
same,GLOBULIN,[2]; [6],2.6 g/dL and 2.7 g/dL and 2.9 g/dL
same,GLUCOSE,[2]; [6],222 mg/dL and 160 mg/dL and 198 mg/dL
same,PHOSPHORUS,[2]; [6],11 mg/dL and 10.7 mg/dL and 10 mg/dL and 10.6 mg/dL
same,POTASSIUM,[2]; [6],6.3 mEq/L (2×) and 5.4 mEq/L and 6 mEq/L and 6.6 mEq/L
same,SODIUM,[2]; [6],147 mEq/L and 150 mEq/L
same,TOT BILIRUBIN,[2]; [6],0 mg/dL (4×) and 0.1 mg/dL
same,TOT PROTEIN,[2]; [6],6.2 g/dL and 5.7 g/dL and 5.9 g/dL and 6.1 g/dL and 6.3 g/dL
same,albumin levels,"[2]; anatabine: males 0.75 and […], females 0.1 and 0.75 mg/kg",slight increases in albumin levels
same,ALBUMIN,"[2]; female, 0.1 mg/kg, group mean",3.62 g/dL
same,ALK PHOSPHATASE,"[2]; female, 0.1 mg/kg, group mean",248.40 IU/L
same,ALT,"[2]; female, 0.1 mg/kg, group mean",49.60 IU/L
same,AST,"[2]; female, 0.1 mg/kg, group mean",77.00 IU/L
same,DIR BILIRUBIN,"[2]; female, 0.1 mg/kg, group mean",0.00 mg/dL
same,GLOBULIN,"[2]; female, 0.1 mg/kg, group mean",3.02 g/dL
same,TOT BILIRUBIN,"[2]; female, 0.1 mg/kg, group mean",0.00 mg/dL
same,TOT PROTEIN,"[2]; female, 0.1 mg/kg, group mean",6.64 g/dL
same,ALBUMIN,"[2]; female, 0.75 mg/kg, group mean",3.52 g/dL
same,ALK PHOSPHATASE,"[2]; female, 0.75 mg/kg, group mean",158.00 IU/L
same,ALT,"[2]; female, 0.75 mg/kg, group mean",54.60 IU/L
same,AST,"[2]; female, 0.75 mg/kg, group mean",73.20 IU/L
same,BUN,"[2]; female, 0.75 mg/kg, group mean",15.40 mg/dL
same,DIR BILIRUBIN,"[2]; female, 0.75 mg/kg, group mean",0.00 mg/dL
same,GLOBULIN,"[2]; female, 0.75 mg/kg, group mean",2.86 g/dL
same,TOT BILIRUBIN,"[2]; female, 0.75 mg/kg, group mean",0.00 mg/dL
same,TOT PROTEIN,"[2]; female, 0.75 mg/kg, group mean",6.38 g/dL
same,ALBUMIN,"[2]; male, 0.1 mg/kg, group mean",3.24 g/dL
same,ALK PHOSPHATASE,"[2]; male, 0.1 mg/kg, group mean",407.40 IU/L
same,ALT,"[2]; male, 0.1 mg/kg, group mean",70.60 IU/L
same,AST,"[2]; male, 0.1 mg/kg, group mean",96.00 IU/L
same,BUN,"[2]; male, 0.1 mg/kg, group mean",18.00 mg/dL
same,DIR BILIRUBIN,"[2]; male, 0.1 mg/kg, group mean",0.00 mg/dL
same,GLOBULIN,"[2]; male, 0.1 mg/kg, group mean",2.86 g/dL
same,TOT BILIRUBIN,"[2]; male, 0.1 mg/kg, group mean",0.00 mg/dL
same,TOT PROTEIN,"[2]; male, 0.1 mg/kg, group mean",6.10 g/dL
same,ALBUMIN,"[2]; male, 0.75 mg/kg, group mean",3.28 g/dL
same,ALK PHOSPHATASE,"[2]; male, 0.75 mg/kg, group mean",370.80 IU/L
same,ALT,"[2]; male, 0.75 mg/kg, group mean",66.80 IU/L
same,AST,"[2]; male, 0.75 mg/kg, group mean",89.60 IU/L
same,DIR BILIRUBIN,"[2]; male, 0.75 mg/kg, group mean",0.02 mg/dL
same,TOT BILIRUBIN,"[2]; male, 0.75 mg/kg, group mean",0.02 mg/dL
same,TOT PROTEIN,"[2]; male, 0.75 mg/kg, group mean",6.04 g/dL
same,globulins,"[2]; males, all anatabine dose levels, nicotine 0.75 mg/kg",marginally higher

# Source: patent US20120196899A1, “METHODS AND PRODUCTS FOR TREATING INFLAMMATION” (Rock Creek Pharmaceuticals, Inc., priority 2010, published 2012)
